Results taken from US20240246977A1, “DEGRADATION OF BRUTON'S TYROSINE KINASE (BTK) BY CONJUGATION OF BTK INHIBITORS WITH E3 LIGASE LIGAND AND METHOD OF USE” (BeiGene Switzerland GmbH, priority 2021, published 2024).

Legend:
BTK = BTK (Homo sapiens, UniProt Q06187); assay: BTK cell degradation in TMD-8 cells, HTRF assay; type: cell-based; parameters: endogenous in cells; host or cells: TMD-8 cells; conditions: 6 h treatment, IC50 (DC50) of BTK degradation
Method in brief: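 TMD-8 cells treated 6 h with 8-dose series (6-fold dilutions, 0.2% DMSO final), then lysed and BTK quantified by HTRF (337/665/620 nm) after overnight antibody incubation at room temperature. Degradation normalized to DMSO high and low controls; DC50 and Dmax from four-parameter fit.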

HEK-293 cells = assay: HEK-293 cytotoxicity detection (CellTiter-Glo); type: cell-based; conditions: Homo sapiens, 72 h, 72 h incubation, CellTiter-Glo luminescence, read-out: HEK293
Method in brief: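 HEK-293 cells exposed 72 h to 8 compounds doses (4-fold dilutions, top stock 5 mM at 500×) in 0.2% DMSO. Viability by CellTiter-Glo luminescence; inhibition normalised to DMSO high control and low control, IC50 from four-parameter curve fit.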

BTK, sequence (Q06187 whole entry): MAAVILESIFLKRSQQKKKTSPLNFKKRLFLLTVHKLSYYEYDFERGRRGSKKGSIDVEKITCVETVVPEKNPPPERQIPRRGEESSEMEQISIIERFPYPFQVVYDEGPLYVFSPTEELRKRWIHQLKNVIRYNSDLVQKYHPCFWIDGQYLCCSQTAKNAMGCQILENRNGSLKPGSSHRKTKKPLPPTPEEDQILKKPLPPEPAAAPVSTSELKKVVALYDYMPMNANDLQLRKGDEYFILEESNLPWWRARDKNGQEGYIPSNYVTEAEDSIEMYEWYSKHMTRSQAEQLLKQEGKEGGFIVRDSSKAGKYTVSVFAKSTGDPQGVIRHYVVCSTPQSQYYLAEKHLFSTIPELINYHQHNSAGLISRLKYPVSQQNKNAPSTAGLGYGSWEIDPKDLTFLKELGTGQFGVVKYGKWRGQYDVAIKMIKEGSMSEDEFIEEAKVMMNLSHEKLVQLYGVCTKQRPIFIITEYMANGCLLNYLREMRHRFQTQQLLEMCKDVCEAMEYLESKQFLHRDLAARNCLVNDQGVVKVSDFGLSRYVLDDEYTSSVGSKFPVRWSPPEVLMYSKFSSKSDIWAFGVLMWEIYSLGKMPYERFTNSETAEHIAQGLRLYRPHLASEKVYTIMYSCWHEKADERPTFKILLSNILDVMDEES

DC50 (BTK) [nM] | Structure (SMILES) | IC50 (HEK-293 cells) [nM]
60.1 | NC(=O)c1c(-c2ccc(C3(Nc4cc(C(F)(F)F)ccn4)CC3)cc2)nn2c1Nc1ccc(N3CCN(CC4CCN(c5ccc(N6CCC(=O)NC6=O)cc5)CC4)CC3)cc1CC2 [Example C16, 7-(4-((1-(4-(2,4-dioxotetrahydropyrimidin-1(2H)-yl)phenyl)piperidin-4-yl)methyl)piperazin-1-yl)-2-(4-(1-((4-(trifluoromethyl)pyridin-2-yl)amino)cyclopropyl)phenyl)-9,10-dihydro-4H-benzo[d]pyrazolo[1,5-a][1,3]diazepine-3-carboxamide] | > 10000
55.1 | CCC(Nc1cc(C(F)(F)F)ccn1)c1ccc(-c2nn3c(c2C(N)=O)Nc2ccc(N4CCN(CC5CCN(c6ccc(N7CCC(=O)NC7=O)cc6)CC5)CC4)cc2CC3)cc1 (centres unmarked) [Example C17, 7-(4-((1-(4-(2,4-dioxotetrahydropyrimidin-1(2H)-yl)phenyl)piperidin-4-yl)methyl)piperazin-1-yl)-2-(4-(1-((4-(trifluoromethyl)pyridin-2-yl)amino)propyl)phenyl)-9,10-dihydro-4H-benzo[d]pyrazolo[1,5-a][1,3]diazepine-3-carboxamide] | > 10000
12.5 | COc1ccncc1C(=O)N[C@H](C)c1ccc(-c2nn3c(c2C(N)=O)Nc2ccc(N4CCN(CC5CCN(c6ccc(N7CCC(=O)NC7=O)cc6)CC5)CC4)cc2CC3)cc1 [Example C18, (R)-7-(4-((1-(4-(2,4-dioxotetrahydropyrimidin-1(2H)-yl)phenyl)piperidin-4-yl)methyl)piperazin-1-yl)-2-(4-(1-(4-methoxynicotinamido)ethyl)phenyl)-9,10-dihydro-4H-benzo[d]pyrazolo[1,5-a][1,3]diazepine-3-carboxamide] | > 10000
0.848 | COc1ccccc1C(=O)NCc1ccc(-c2nn3c(c2C(N)=O)Nc2ccc(N4CCN(CC5CCN(c6ccc(N7CCC(=O)NC7=O)cc6)CC5)CC4)cc2CC3)cc1F [Example C19, 7-(4-((1-(4-(2,4-dioxotetrahydropyrimidin-1(2H)-yl)phenyl)piperidin-4-yl)methyl)piperazin-1-yl)-2-(3-fluoro-4-((2-methoxybenzamido)methyl)phenyl)-9,10-dihydro-4H-benzo[d]pyrazolo[1,5-a][1,3]diazepine-3-carboxamide] | 142
0.956 | COc1ccc2ccccc2c1C(=O)NCc1ccc(-c2nn3c(c2C(N)=O)Nc2ccc(N4CCN(CC5CCN(c6ccc(N7CCC(=O)NC7=O)cc6)CC5)CC4)cc2CC3)cc1F [Example C20, 7-(4-((1-(4-(2,4-dioxotetrahydropyrimidin-1(2H)-yl)phenyl)piperidin-4-yl)methyl)piperazin-1-yl)-2-(3-fluoro-4-((2-methoxy-1-naphthamido)methyl)phenyl)-9,10-dihydro-4H-benzo[d]pyrazolo[1,5-a][1,3]diazepine-3-carboxamide] | > 10000
0.703 | COc1ccc(C(F)(F)F)cc1C(=O)NCc1ccc(-c2nn3c(c2C(N)=O)Nc2ccc(N4CCN(CC5CCN(c6ccc(N7CCC(=O)NC7=O)cc6)CC5)CC4)cc2CC3)cc1 [Example C21, 7-(4-((1-(4-(2,4-dioxotetrahydropyrimidin-1(2H)-yl)phenyl)piperidin-4-yl)methyl)piperazin-1-yl)-2-(4-((2-methoxy-5-(trifluoromethyl)benzamido)methyl)phenyl)-9,10-dihydro-4H-benzo[d]pyrazolo[1,5-a][1,3]diazepine-3-carboxamide] | > 10000
2.12 | COc1cccc(OC)c1C(=O)NCc1ccc(-c2nn3c(c2C(N)=O)Nc2ccc(N4CCN(CC5CCN(c6ccc(N7CCC(=O)NC7=O)cc6)CC5)CC4)cc2CC3)cc1 [Example C22, 2-(4-((2,6-dimethoxybenzamido)methyl)phenyl)-7-(4-((1-(4-(2,4-dioxotetrahydropyrimidin-1(2H)-yl)phenyl)piperidin-4-yl)methyl)piperazin-1-yl)-9,10-dihydro-4H-benzo[d]pyrazolo[1,5-a][1,3]diazepine-3-carboxamide] | > 10000
2 | COc1ccc(C(=O)NCc2ccc(-c3nn4c(c3C(N)=O)Nc3ccc(N5CCN(CC6CCN(c7ccc(N8CCC(=O)NC8=O)cc7)CC6)CC5)cc3CC4)cc2)c(OC)c1 [Example C23, 2-(4-((2,4-dimethoxybenzamido)methyl)phenyl)-7-(4-((1-(4-(2,4-dioxotetrahydropyrimidin-1(2H)-yl)phenyl)piperidin-4-yl)methyl)piperazin-1-yl)-9,10-dihydro-4H-benzo[d]pyrazolo[1,5-a][1,3]diazepine-3-carboxamide] | > 10000
2.11 | COc1ccc(C(F)(F)F)cc1C(=O)NCc1ccc(-c2nn3c(c2C(N)=O)Nc2ccc(N4CCN(CC5CCN(c6ccc(N7CCC(=O)NC7=O)cc6)CC5)CC4)cc2CC3)c(F)c1 [Example C24, 7-(4-((1-(4-(2,4-dioxotetrahydropyrimidin-1(2H)-yl)phenyl)piperidin-4-yl)methyl)piperazin-1-yl)-2-(2-fluoro-4-((2-methoxy-5-(trifluoromethyl)benzamido)methyl)phenyl)-9,10-dihydro-4H-benzo[d]pyrazolo[1,5-a][1,3]diazepine-3-carboxamide] | > 10000
0.611 | COc1ccc(F)c(F)c1C(=O)NCc1ccc(-c2nn3c(c2C(N)=O)Nc2ccc(N4CCN(CC5CCN(c6ccc(N7CCC(=O)NC7=O)cc6)CC5)CC4)cc2CC3)cc1 [Example C25, 2-(4-((2,3-difluoro-6-methoxybenzamido)methyl)phenyl)-7-(4-((1-(4-(2,4-dioxotetrahydropyrimidin-1(2H)-yl)phenyl)piperidin-4-yl)methyl)piperazin-1-yl)-9,10-dihydro-4H-benzo[d]pyrazolo[1,5-a] [1,3]diazepine-3-carboxamide] | > 10000
1.79 | COc1ccc(C(F)(F)F)cc1C(=O)NCc1ccc(-c2nn3c(c2C(N)=O)Nc2ccc(N4CCN(CC5CCN(c6ccc(N7CCC(=O)NC7=O)cc6)CC5)CC4)cc2CC3)cc1F [Example C26, 7-(4-((1-(4-(2,4-dioxotetrahydropyrimidin-1(2H)-yl)phenyl)piperidin-4-yl)methyl)piperazin-1-yl)-2-(3-fluoro-4-((2-methoxy-5-(trifluoromethyl)benzamido)methyl)phenyl)-9,10-dihydro-4H-benzo[d]pyrazolo[1,5-a][1,3]diazepine-3-carboxamide] | 108
1.76 | COc1ccc(C(F)(F)F)cc1C(=O)NCc1ccc(-c2nn3c(c2C(N)=O)Nc2ccc(N4CCN(CC5CCN(c6ccc(N7CCC(=O)NC7=O)cc6)CC5)CC4)cc2CC3)c(OC)c1 [Example C27, 7-(4-((1-(4-(2,4-dioxotetrahydropyrimidin-1(2H)-yl)phenyl)piperidin-4-yl)methyl)piperazin-1-yl)-2-(2-methoxy-4-((2-methoxy-5-(trifluoromethyl)benzamido)methyl)phenyl)-9,10-dihydro-4H-benzo[d]pyrazolo[1,5-a][1,3]diazepine-3-carboxamide] | 209
1.15 | COc1ccc(C(F)(F)F)cc1C(=O)NCc1ccc(-c2nn3c(c2C(N)=O)Nc2ccc(N4CCN(CC5CCN(c6ccc(N7CCC(=O)NC7=O)cc6)CC5)CC4)cc2CC3)c(F)c1F [Example C28, 2-(2,3-difluoro-4-((2-methoxy-5-(trifluoromethyl)benzamido)methyl)phenyl)-7-(4-((1-(4-(2,4-dioxotetrahydropyrimidin-1(2H)-yl)phenyl)piperidin-4-yl)methyl)piperazin-1-yl)-9,10-dihydro-4H-benzo[d]pyrazolo[1,5-a][1,3]diazepine-3-carboxamide] | > 10000
1.56 | COc1ccc(C2CC2)cc1C(=O)NCc1ccc(-c2nn3c(c2C(N)=O)Nc2ccc(N4CCN(CC5CCN(c6ccc(N7CCC(=O)NC7=O)cc6)CC5)CC4)cc2CC3)cc1 [Example C29, 2-(4-((5-cyclopropyl-2-methoxybenzamido)methyl)phenyl)-7-(4-((1-(4-(2,4-dioxotetrahydropyrimidin-1(2H)-yl)phenyl)piperidin-4-yl)methyl)piperazin-1-yl)-9,10-dihydro-4H-benzo[d]pyrazolo[1,5-a][1,3]diazepine-3-carboxamide] | > 10000
0.786 | COc1cc(F)c(F)cc1C(=O)NCc1ccc(-c2nn3c(c2C(N)=O)Nc2ccc(N4CCN(CC5CCN(c6ccc(N7CCC(=O)NC7=O)cc6)CC5)CC4)cc2CC3)cc1 [Example C30, 2-(4-((4,5-difluoro-2-methoxybenzamido)methyl)phenyl)-7-(4-((1-(4-(2,4-dioxotetrahydropyrimidin-1(2H)-yl)phenyl)piperidin-4-yl)methyl)piperazin-1-yl)-9,10-dihydro-4H-benzo[d]pyrazolo[1,5-a][1,3]diazepine-3-carboxamide] | > 10000
7.02 | COc1cc(C)ccc1C(=O)NCc1ccc(-c2nn3c(c2C(N)=O)Nc2ccc(N4CCN(CC5CCN(c6ccc(N7CCC(=O)NC7=O)cc6)CC5)CC4)cc2CC3)cc1C [Example C31, 7-(4-((1-(4-(2,4-dioxotetrahydropyrimidin-1(2H)-yl)phenyl)piperidin-4-yl)methyl)piperazin-1-yl)-2-(4-((2-methoxy-4-methylbenzamido)methyl)-3-methylphenyl)-9,10-dihydro-4H-benzo[d]pyrazolo[1,5-a][1,3]diazepine-3-carboxamide] | > 10000
